Patent publication US20210337789A1, “Derivatives of m-Guaiacol, Their Preparation and Their Uses” (Universite de Caen Normandie, priority 2018, published 2021)

Assays:
[1] = system: Micrococcus luteus reference strain; test: Bacterial growth (optical density at 600 nm) on Micrococcus luteus reference strain; assay type: cell-based; parameters: key: 0 = no effect, 1 = pure only, 2 = several concentrations, 3 = strong at all; conditions: in DMSO diluted in PBS, compared with triclosan
Procedure: (§1) The bacterial growth is evaluated by measuring the optical density (DO) at 600 nm using NanoDrop.
(§2) This ratio permits a classification of the molecules in 4 effect levels: • 0=no effect observed; • 1=effect observed only when the molecule is tested pure; • 2=effect observed at several concentrations, but which gradually decreases the dilutions; • 3=strong effect observed at each concentration of molecule tested.
The molecules are put in a solution in DMSO and diluted in PBS.

[2] = system: E. coli strains presenting high levels of resistance; test: Bacterial growth on E. coli strains presenting high levels of resistance; assay type: cell-based, Escherichia coli; parameters: key to Effects (0 < 1 < 2 < 3): 0 = no effect; 1 = pure only; 2 = several concs; 3 = strong at each; key to Δ DO: change in optical density measured at 600 nm; conditions: for Effects (0 < 1 < 2 < 3): molecules at 1, 0.5 and 0.1 mg/ml, triclosan at 0.1 mg/ml
Procedure: as §1, §2
Compounds of the invention were tested on 4 strains of E. coli, 3 strains of K. pneumoniae and 4 strains of S. aureus with the resistance profiles below.

## COc1cc(O)c(Br)c(Cl)c1F [sr7615]
[1]
  Effect level: 3
[2]; E. coli Strain 1, 0.1 mg/ml
  Δ DO: 0.047
[2]; E. coli Strain 1, 0.5 mg/ml
  Δ DO: 0.777
[2]; E. coli Strain 1, 1 mg/ml
  Δ DO: 0.896
[2]; E. coli Strain 1
  Effects (0 < 1 < 2 < 3): 2
[2]; E. coli Strain 2, 0.1 mg/ml
  Δ DO: 0.080
[2]; E. coli Strain 2, 0.5 mg/ml
  Δ DO: 0.886
[2]; E. coli Strain 2, 1 mg/ml
  Δ DO: 1.082
[2]; E. coli Strain 2
  Effects (0 < 1 < 2 < 3): 2
[2]; E. coli Strain 3, 0.1 mg/ml
  Δ DO: 0.029
[2]; E. coli Strain 3, 0.5 mg/ml
  Δ DO: 0.526
[2]; E. coli Strain 3, 1 mg/ml
  Δ DO: 0.882
[2]; E. coli Strain 3
  Effects (0 < 1 < 2 < 3): 2
[2]; E. coli Strain 4, 0.1 mg/ml
  Δ DO: 0.253
[2]; E. coli Strain 4, 0.5 mg/ml
  Δ DO: 0.809
[2]; E. coli Strain 4, 1 mg/ml
  Δ DO: 0.945
[2]; E. coli Strain 4
  Effects (0 < 1 < 2 < 3): 3
